Experimental findings from patent US10816552B2 (The Governing Council of the University of Toronto, priority 2014, dated 2020) are described below.

For one data set, the system named is Jurkat cells. Description: Metabolic toxicity assay (WST-1) in Jurkat cells. It is filed as cell-based. The settings on record: Jurkat cells, 24 hour incubation, WST-1. The method, then:
FIGS. 7A, B and C show a) and b) the cell proliferation rate of HCT116 cells as a function of time in the presence of various concentrations of the exemplary compound, Telox-2 (confluency analysis); and c) the metabolic toxicity of the exemplary compound, Telox-2, in Jurkat cells as measured by reduction of WST-1. Cells were incubated with Telox-2 for 24 hours prior to a 30 minute exposure to WST-1.
A 96 well clear fluorometer plate was loaded with 200 μL of Jurkat cells at a culture density of 1×10^6 cells per mL. To each well was added an appropriate amount of a stock solution of Telox/Telox2 in sterile DMSO to reach a desired concentration of Telox/Telox2 (1-1000 micromole). The concentration of DMSO was 1% in all wells. Cells were allowed to incubate for 24 h at 37° C. under normal atmosphere, after which 20 μL of a commercially available solution of WST-1 in PBS (Roche Diagnostics, product #05015944001) was added to each well (gentle pipetting evenly distributed the reagent throughout the well). Cells were allowed to incubate for a further 0.5 h at 37° C. under normal atmosphere, followed by subsequent measurement of the absorbance of each well at 450 nm using a TECAN Safire 2 plate reader. Data was background corrected vs. wells that contained cell growth media (without cells), an appropriate concentration of Telox2, a final concentration of DMSO=1%, and WST-1. Background correction wells were incubated in the same manner as described for cell-positive wells.
To investigate the organotellurium compounds of study as potential probe moieties for MC, the metabolic toxicity of the compounds was evaluated. Organotellurium compounds are often described as toxic, with aryl telluroethers showing cellular toxicity below 100 μM across a range of cell lines under different assay conditions.^9-11,38,39 The toxicity of compounds 8-11 was investigated in a commonly used Jurkat cell line after a 24 hour incubation using the metabolic probe WST-1 (Roche Diagnostics, Laval, Quebec) as per manufacturer's instructions. As compounds 8, 9 and 10 are expected to show degradation over the time frame of the toxicity assay, based on the NMR stability studies, these experiments show the relative toxicity of the compounds and their resulting degradation products (Table 2). […] The LD50 values of the exemplary organotellurium compounds of the present application provide promise for their use as activity based MC probes since the general MC experiment can be achieved at concentrations of ˜100 μM.^5
For orientation: Tetrazolium dyes change colour on reduction, which living cells bring about.

A further data set is described as follows: Solubility observations. It is filed as physicochemical.

As to `O=[N+]([O-])c1nccn1CCc1ccc[te]1` [Telox-2, 2-nitro-1-(2-(tellurophen-2-yl)ethyl)-1H-imidazole], in the data set on Jurkat cells, the “LD50 (metabolic toxicity)” value is ~270 µM. In addition, in “Solubility observations”, the “solubility, in words” value is “unusually high water solubility”.
